Measurements from paper PMC4640659, “Antidepressant- and Anxiolytic-Like Effects of New Dual 5-HT1A and 5-HT7 Antagonists in Animal Models” (PLoS ONE, 2015).
pIC50, pKi: −log10 of the molar value. “Also recorded” adds a separate entry of the source. Where a name gives a salt, the structure may show the parent alone.

How the values were obtained:
[1] = tested on: mice; test: Forced swim test (FST) in mice; type: in vivo; conditions: for Effect on immobility time, given alone at sub-effective dose: i.p., fluoxetine 10, reboxetine 5, bupropion 2.5, HBK-14 1.25, HBK-15 0.625 mg/kg; for Decrease of immobility time: vs control
Procedure: The studies were carried out on mice according to the method described by Porsolt et al.. The animals were dropped individually into glass cylinders (height 25 cm, diameter 10 cm) containing 10 cm of water, maintained at 23–25°C. Mice were left in the cylinder for 6 min. […] The mouse was judged to be immobile when it remained floating passively in the water.

[2] = tested on: rats; test: FST in rats; type: in vivo
Procedure: The experiment was carried out according to the method of Detke et al. [33]. On the first experimental day rats were placed individually in Plexiglas cylinders (40 cm height, 18 cm in diameter) containing 30 cm of water maintained at 25°C for 15 min. After that time the rats were placed for 30 min under a 60-W bulb to dry. 24 hours after the pre-test, the rats were placed again in the cylinders and the total duration of immobility (when a rat remained floating in the water without struggling and was making only those movements necessary to keep its head above water), swimming (when a rat was making active swimming motions, more than necessary to merely maintain its head above water, e.g. moving around in the cylinder) and climbing (when a rat was making active movements with its forepaws in and out of the water, usually directed against the walls) was recorded during the whole 5-min test period. Fresh water was used for each animal.

[3] = tested on: mice; test: Four-plate test in mice; type: in vivo
[4] = target: T1, human 5-HT2A receptor (Homo sapiens, UniProt P28223); test: Radioligand binding, [3H]-ketanserin, CHO-K1 cell membranes; conditions: read-out: Serotonergic Ki 5-HT2A
T1 construct: expressed in transfected cells; host or cells: CHO-K1
Procedure: Radioligand binding was performed using membranes from CHO-K1 cells stably transfected with the human 5-HT2A receptor. Monolayer of CHO-K1 cells with stable expression of human receptor after reaching about 90% confluence was washed twice with PBS. After that the cells were scrapped and collected to centrifuge tubes. About 20 volumes of assay buffer was added to each tube and cells were homogenized (3 x 10 sec., 24 000 rpm; Ultra Turrax T25B homogenizator, IKA Labortechnik, USA). Tubes were centrifuged (20 min., 30 000 x g, about 4°C; 3K30 centrifuge, Sigma Laborzentrifugen, Germany). Supernatant was discarded and appropriate volume of assay buffer with 10% glycerol was added and homogenization was repeated. Membrane suspension was aliquoted into cryotubes, freezed in liquid nitrogen and stored until assay in -80°C. Membrane protein concentration was determined by BCA method. Immediately before assay frozen membranes were thawed quickly (about 35°C), mixed and homogenized (60 sec., 24,000 rpm) with appropriate volume of assay buffer to reach desired membrane protein concentration. All assays were carried out in duplicates. […] Microplate was covered with a sealing tape, mixed and incubated for 60 minutes at 27°C. […] Radioactivity was counted in MicroBeta2 scintillation counter (PerkinElmer) at approximately 30% efficiency. Inhibition constants (Ki) were calculated.

[5] = target: T2, Serotonin transporter (SERT) (Rattus norvegicus, UniProt P31652); test: Radioligand binding, [3H]-citalopram, rat cerebral cortex; conditions: read-out: Serotonergic Ki SERT
T2 construct: Rat cerebral cortex was homogenized; from tissue; host or cells: rat cerebral cortex
Procedure: The supernatant was decanted and pellet was re-suspended in 30 volumes of buffer and centrifuged again. The resulting pellet was re-suspended in the same quantity of the buffer and centrifuged third time in the same conditions. […] Ki values were calculated.

[6] = target: α1-adrenoceptor; test: Radioligand binding, [3H]-prazosin, rat cerebral cortex; conditions: read-out: Adrenergic Ki α1
[7] = target: T3, human D2 receptor (Homo sapiens, UniProt P14416); test: Radioligand binding, [3H]-methylspiperon, CHO-K1 cell membranes; conditions: read-out: Dopaminergic Ki D2
T3 construct: expressed in transfected cells; host or cells: CHO-K1
Procedure: Radioligand binding was performed using membranes from CHO-K1 cells stably transfected with the human D2 receptor. All assays were carried out in duplicates. […] (+)-butaclamol (10 μM) was used to define nonspecific binding. Microplate was covered with a sealing tape, mixed and incubated for 60 minutes at 37°C. The reaction was terminated by rapid filtration through GF/C filter mate pre-soaked with 0.3% polyethyleneimine for 30 minutes. Ten rapid washes with 200 μl 50 mM Tris buffer (4°C, pH 7.4) were performed using automated harvester system Harvester-96 MACH III FM (Tomtec). The filter mates were dried at 37°C in forced air fan incubator and then solid scintillator MeltiLex was melted on filter mates at 90°C for 5 minutes. Radioactivity was counted in MicroBeta2 scintillation counter (PerkinElmer) at approximately 30% efficiency. Ki values were calculated.

[8] = target: T4, human serotonin 5-HT7 receptor (Homo sapiens, UniProt P34969); test: cAMP functional assay (LANCE Ultra TR-FRET), CHO-K1 cells; type: cell-based; conditions: for Kb / Antagonist activity weaker than reference antagonist SB-269970 / Emax: 5-HT7; for Kb: Cheng-Prusoff equation, read-out: Antagonist mode Kb; for Antagonist activity weaker than reference antagonist SB-269970: range over HBK-14 and HBK-15; for Emax: CHO-K1, mean of two independent experiments in duplicate, read-out: Agonist mode Emax
T4 construct: host or cells: CHO-K1 (with CRE-bla reporter)
Procedure: CHO-K1 cells were transfected with a beta lactamase (bla) reporter gene under control of the cyclic AMP response element (CRE) (Life Technologies).
Thawed cells were resuspended in stimulation buffer (HBSS, 5 mM HEPES, 0.5 IBMX, and 0.1% BSA at pH 7.4) at 2x10^5 cells/ml for 5-HT7 receptor. The same volume (10 μl) of cell suspension was added to tested compounds for 5-HT7 receptor. Samples were loaded onto a white opaque half area 96-well microplate. […] The agonist and antagonist were added simultaneously. Cell stimulation was performed for 1h at room temperature. After incubation, cAMP measurements were performed with homogeneous TR-FRET immunoassay using the LANCE Ultra cAMP kit (PerkinElmer, USA). 10 μl of EucAMP Tracer Working Solution and 10 μl of ULight-anti-cAMP Tracer Working Solution were added, mixed, and incubated for 1 h. The TR-FRET signal was read on an EnVision microplate reader (PerkinElmer, USA).

[9] = tested on: rats; test: Elevated plus maze (EPM) test in rats; type: in vivo
From the text: Plus-maze apparatus (an automated device produced by Campden Instruments Ltd, UK) made of durable, high density, nonporous black plastic, elevated to a height of 50 cm, consisted of two open arms (50 cm x 10 cm) and two closed arms (50 cm x 10 cm, and 30 cm high walls), arranged so that the two arms of each type were opposite each other. Floor of the plus-maze was made of infrared transparent material what means that there are no visible sensors. The plus-maze was placed in a darkened room; only the centre of the apparatus was illuminated with low-density light (30 lux measured on the maze level). Plus-maze apparatus was connected to PC software by control chassis. Each rat was gently placed in the centre of the plus-maze, facing one of the closed arms, immediately after a 5-min adaptation period in a plastic black box (60 cm x 60 cm x 35 cm). During a 5-min test period, automated Motor Monitor System recorded the number of entries into the closed and open arms, the time spent in either type of the arms. After each trial the maze was wiped clean. Studied compounds and reference drug were administered (i.p.) 30 min before the test.

[10] = target: 5-HT1A receptors; conditions: authors' previous studies; cited from earlier work
[11] = target: 5-HT7 receptors; conditions: authors' previous studies; cited from earlier work
[12] = target: 5-HT6 receptors; conditions: authors' former studies; cited from earlier work
[13] = tested on: levels of serotonin; parameters: method as in PMID 9044239; conditions: mice, 3-day treatment 200 mg/kg; cited from earlier work
[14] = 2.5 mg/kg i.p. 30 min before test
[15] = i.p., ANOVA over the doses tested
[16] = 5 mg/kg i.p. 30 min before test
[17] = 1.25 mg/kg i.p. 30 min before test
[18] = 2.5 mg/kg i.p., pCPA interaction experiment (Fig 8A, 8B)
[19] = pCPA 200 mg/kg i.p. once daily for 3 days

T4 sequence (P34969 whole entry): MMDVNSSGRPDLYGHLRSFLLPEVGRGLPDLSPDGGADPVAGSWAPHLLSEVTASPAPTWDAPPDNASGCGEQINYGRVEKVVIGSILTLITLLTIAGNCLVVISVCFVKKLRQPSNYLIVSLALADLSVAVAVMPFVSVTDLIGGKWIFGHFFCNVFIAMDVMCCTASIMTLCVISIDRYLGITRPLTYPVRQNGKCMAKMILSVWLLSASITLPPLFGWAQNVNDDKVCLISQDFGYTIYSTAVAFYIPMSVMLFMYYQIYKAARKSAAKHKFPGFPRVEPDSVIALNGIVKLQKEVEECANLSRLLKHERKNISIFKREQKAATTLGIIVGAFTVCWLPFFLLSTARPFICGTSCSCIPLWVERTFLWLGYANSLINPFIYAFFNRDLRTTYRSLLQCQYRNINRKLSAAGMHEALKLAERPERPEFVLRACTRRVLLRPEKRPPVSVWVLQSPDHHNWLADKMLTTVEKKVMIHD
T3 sequence (P14416 whole entry): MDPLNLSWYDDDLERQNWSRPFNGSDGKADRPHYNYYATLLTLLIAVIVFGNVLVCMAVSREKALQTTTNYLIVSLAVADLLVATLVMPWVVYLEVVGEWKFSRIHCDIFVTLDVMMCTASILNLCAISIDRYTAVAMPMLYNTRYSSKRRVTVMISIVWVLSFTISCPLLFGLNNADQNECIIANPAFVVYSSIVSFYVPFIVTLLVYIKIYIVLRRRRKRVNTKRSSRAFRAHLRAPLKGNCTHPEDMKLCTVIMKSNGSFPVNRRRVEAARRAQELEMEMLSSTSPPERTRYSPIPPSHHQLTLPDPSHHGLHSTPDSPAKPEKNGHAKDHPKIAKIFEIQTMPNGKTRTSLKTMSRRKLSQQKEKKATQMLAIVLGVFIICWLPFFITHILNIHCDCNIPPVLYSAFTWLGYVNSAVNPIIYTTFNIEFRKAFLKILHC
T2 sequence (P31652 whole entry): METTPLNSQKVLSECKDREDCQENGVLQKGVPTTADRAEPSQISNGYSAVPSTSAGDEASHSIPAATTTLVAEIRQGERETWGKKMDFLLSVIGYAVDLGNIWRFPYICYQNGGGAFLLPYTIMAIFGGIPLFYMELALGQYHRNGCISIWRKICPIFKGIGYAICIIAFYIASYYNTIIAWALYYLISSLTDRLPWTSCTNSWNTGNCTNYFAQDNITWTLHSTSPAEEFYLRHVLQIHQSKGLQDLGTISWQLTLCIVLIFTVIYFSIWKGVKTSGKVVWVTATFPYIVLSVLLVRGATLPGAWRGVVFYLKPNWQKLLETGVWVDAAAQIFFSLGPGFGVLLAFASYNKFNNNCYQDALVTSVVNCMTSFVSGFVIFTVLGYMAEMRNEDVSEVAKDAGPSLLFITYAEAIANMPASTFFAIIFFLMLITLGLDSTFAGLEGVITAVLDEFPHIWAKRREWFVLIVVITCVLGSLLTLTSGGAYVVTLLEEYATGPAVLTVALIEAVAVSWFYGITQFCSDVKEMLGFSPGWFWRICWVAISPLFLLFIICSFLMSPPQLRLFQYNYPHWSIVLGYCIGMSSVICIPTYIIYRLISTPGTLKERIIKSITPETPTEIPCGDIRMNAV
T1 sequence (P28223 whole entry): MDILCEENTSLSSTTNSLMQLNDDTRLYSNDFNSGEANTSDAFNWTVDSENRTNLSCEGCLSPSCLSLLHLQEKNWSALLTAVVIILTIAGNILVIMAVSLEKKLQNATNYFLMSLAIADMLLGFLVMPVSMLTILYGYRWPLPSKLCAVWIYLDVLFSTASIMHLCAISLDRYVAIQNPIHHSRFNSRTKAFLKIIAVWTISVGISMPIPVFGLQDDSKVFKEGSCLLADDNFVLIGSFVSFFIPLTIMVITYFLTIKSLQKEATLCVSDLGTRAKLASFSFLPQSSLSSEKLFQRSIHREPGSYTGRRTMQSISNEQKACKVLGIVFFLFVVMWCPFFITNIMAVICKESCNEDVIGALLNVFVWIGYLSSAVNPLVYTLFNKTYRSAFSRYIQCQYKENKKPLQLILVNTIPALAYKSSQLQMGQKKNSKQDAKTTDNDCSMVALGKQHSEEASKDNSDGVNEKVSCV

CC(NC(C)(C)C)C(=O)c1cccc(Cl)c1 (stereo not shown) [bupropion, reference compound]
Effect on immobility time, given alone at sub-effective dose [1]: did not affect

CCOc1ccccc1OC(c1ccccc1)C1CNCCO1 (stereo not shown) [reboxetine, reference compound]
Effect on immobility time, given alone at sub-effective dose [1]: did not affect

CN(C)CCC[C@@]1(c2ccc(F)cc2)OCc2cc(C#N)ccc21 [Escitalopram, escitalopram, reference compound]
Decrease of immobility time [1, 14]: 42% | Increase of swimming ([2]; 30 mg/kg i.p.): 171% | Decrease of immobility time ([2]; 30 mg/kg i.p. 30 min before test): 48% | Effect on duration of climbing [2, 15]: no influence

CN(C)CCCN1c2ccccc2CCc2ccccc21 [Imipramine, imipramine, reference compound]
Decrease of immobility time [1, 16]: 50% | Decrease of immobility time ([2]; 10 mg/kg i.p. 30 min before test): 51% | Effect on duration of swimming [2, 15]: no significant effect

COc1ccccc1N1CCN(CCN(C(=O)C2CCCCC2)c2ccccn2)CC1.Cl.Cl.Cl [WAY-100635, N-{2-[4-(2-methoxyphenyl)-1-piperazinyl]ethyl}-N-(2-pyridinyl)cyclohexanecarboxamide trihydrochloride, reference compound]
Effect on duration of immobility time, given alone ([1]; WAY-100635 0.1 mg/kg s.c.): had no effect | Effect on the number of punished crossings, given alone ([3]; WAY-100635 0.1 mg/kg s.c., 0.1 mg/kg): had no effect; also recorded: showed no effect

CNCCC(Oc1ccc(C(F)(F)F)cc1)c1ccccc1 (stereo not shown) [fluoxetine, reference compound]
Effect on immobility time, given alone at sub-effective dose [1]: did not affect

COc1ccccc1N1CCN(CCOCCOc2c(C)cccc2Cl)CC1 [HBK-15, 2-[2-(2-chloro-6-methylphenoxy)ethoxy]ethyl-4-(2-methoxyphenyl)piperazynine dihydrochloride]
pKi [4]: 6.96 | pKi [5]: 6.28 | pKi [6]: 7.89 | pKi [7]: 7.27 | pIC50 [8]: 6.66 | Kb [8]: 0.069 µM | Antagonist activity weaker than reference antagonist SB-269970 [8]: 51-147 fold | Emax [8]: 0% | Decrease of immobility time [1, 17]: 40% | Reduction of immobility ([1]; 1.25 mg/kg i.p., pCPA interaction experiment (Fig 5B)): 22% | Decrease of immobility time [1, 14]: 42% | Decrease of immobility time [1, 16]: 46% | Effect on immobility time, given alone at sub-effective dose [1]: none of tested compounds (HBK-14 1.25 mg/kg and HBK-15 0.625 mg/kg) administered alone affected the mouse immobility | Increase of swimming time ([2]; 1.25 mg/kg i.p.): 166% | Decrease of immobility time [2, 17]: 30% | Increase of swimming time ([2]; 2.5 mg/kg i.p.): 191% | Decrease of immobility time [2, 14]: 38% | Effect on duration of climbing [2, 15]: no significant influence | Increase of the number of punished crossings [3, 14]: 52% | Increase of the number of punished crossings ([3]; 2.5 mg/kg i.p., WAY-100635 interaction experiment (Fig 8C, 8D), 2.5 mg/kg): 111% | Increase of the number of punished crossings [3, 18]: 109% | Increase of the number of punished crossings [3, 16]: 88% | Increase of the percentage of open-arm entries [9, 16]: 89% | Increase of the percentage of time spent in the open arms [9, 16]: 198% | pKi [10]: > 9.00 | pKi [11]: 7.47 | pKi [12]: 5.02

Cc1ccc(N(CC2=NCCN2)c2cccc(O)c2)cc1 [Phentolamine, phentolamine, reference compound]
pKi [6]: 8.05

CN1C(=O)CN=C(c2ccccc2)c2cc(Cl)ccc21 [Diazepam, diazepam, reference compound]
Increase of the number of punished crossings [3, 17]: 62% | Increase of the number of punished crossings [3, 14]: 73% | Increase of the percentage of open-arm entries [9, 14]: 131% | Increase of the percentage of time spent in the open arms [9, 14]: 672%

COc1ccccc1N1CCN(CCOCCOc2c(C)cccc2C)CC1 [HBK-14, 1-{2-[2-(2,6-dimethlphenoxy)ethoxy]ethyl}-4-(2-methoxyphenyl)piperazynine hydrochloride]
pKi [4]: 6.58 | pKi [5]: 5.46 | pKi [6]: 7.64 | pKi [7]: 6.66 | pIC50 [8]: 7.11 | Kb [8]: 0.024 µM | Antagonist activity weaker than reference antagonist SB-269970 [8]: 51-147 fold | Emax [8]: 19% | Decrease of immobility time [1, 14]: 30% | Reduction of immobility ([1]; 2.5 mg/kg i.p., pCPA interaction experiment (Fig 5A)): 25% | Decrease of immobility time [1, 16]: 31% | Effect on immobility time, given alone at sub-effective dose [1]: none of tested compounds (HBK-14 1.25 mg/kg and HBK-15 0.625 mg/kg) administered alone affected the mouse immobility | Increase of swimming behaviour ([2]; 5 mg/kg i.p.): 185% | Decrease of immobility time [2, 16]: 38% | Effect on duration of climbing [2, 15]: no significant effect | Increase of the number of punished crossings [3, 14]: 68% | Increase of the number of punished crossings [3, 18]: 105% | Increase of the number of punished crossings [3, 16]: 87% | Increase of the percentage of open-arm entries [9, 14]: 90% | Increase of the percentage of time spent in the open arms [9, 14]: 591% | pKi [10]: 7.39 | pKi [11]: 6.81 | pKi [12]: 5.00

N[C@@H](Cc1ccc(Cl)cc1)C(=O)O (racemic) [pCPA, p-Chlorophenylalanine, reference compound]
Effect on immobility, given alone [1, 19]: did not influence immobility time | Effect on the number of punished crossings, given alone [3, 19]: showed no effect; also recorded: had no effect | Reduction of the levels of serotonin in cortex [13]: around 30% | Reduction of the levels of serotonin in diencephalon [13]: ~35% | Reduction of the levels of serotonin in midbrain [13]: ~24% | Reduction of the levels of serotonin in pons & medulla [13]: ~34%
